In PMC8509398, “Proteolytic Cleavage of Bioactive Peptides and Protease-Activated Receptors in Acute and Post-Colitis” (International Journal of Molecular Sciences, 2021):
Residues, ends and D or L forms follow the SMILES beside them. *: point of attachment. AMC = Cc1cc(=O)oc2cc(N*)ccc12; Boc = CC(C)(C)OC(=O)*

How the values were obtained:
[1] = target: T1, trypsin-3 (Homo sapiens, UniProt P35030); experiment: Michaelis-Menten constant of fluorogenic substrates with trypsin-3; assay type: biochemical; design: made in house; settings: trypsin-3 0.015 nM, range of substrate concentrations, 37 °C, fluorescence measured kinetically 20 min, Michaelis-Menten fit, experiment repeated twice
T1 sequence (P35030 1-304): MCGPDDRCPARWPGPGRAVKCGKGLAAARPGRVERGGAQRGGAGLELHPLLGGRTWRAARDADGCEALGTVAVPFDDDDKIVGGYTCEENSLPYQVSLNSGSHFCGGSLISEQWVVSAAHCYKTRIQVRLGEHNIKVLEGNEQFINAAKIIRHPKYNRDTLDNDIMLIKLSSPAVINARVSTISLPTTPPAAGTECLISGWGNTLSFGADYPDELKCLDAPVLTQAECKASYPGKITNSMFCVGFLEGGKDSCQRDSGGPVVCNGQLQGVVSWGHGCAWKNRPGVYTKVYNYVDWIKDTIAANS
Method: (§1) Preheated substrate was added to colonic lysate to start the reaction. Fluorescence was measured for 20 min at 37 °C on a Tecan Infinite F200 pro microtiter plate reader. A calibration curve with AMC (Sigma-Aldrich, Saint Louis, MO, USA) was used to determine activities in units per liter, where a unit is defined as the amount of enzyme that catalyzes the conversion of one micromole of the substrate per minute in the specific experimental conditions described. Activities were normalized to protein concentration determined with Bradford to obtain activities in units per gram protein. Km for trypsin-1, trypsin-2, trypsin-3 and thrombin with Boc-QAR-AMC and Tos-GPR-AMC were also determined (Figure S5).
(§2) Figure S 5: Michaelis-Menten constant (Km) for (a) trypsin-1, (b) trypsin-2, (c) trypsin-3 and (d) thrombin with Boc-QAR-AMC and Tos -GPR-AMC. The Km was determined with Boc -QAR-AMC and Tos -GPR-AMC by adding trypsin-1 (0.015 nM), trypsin -2 (0.015 nM), trypsin -3 (0.015 nM) or thrombin (0.19 nM) to a range of substrate concentrations at 37° C. The fluorescence was measured kinetically for 20 min at 37° C on a Tecan F200 multi-plate reader. The results in RFU/min were recalculated by dividing them by the slope of a calibration curve with AMC (0.78 – 10 µM) to obtain results in µmol/L/min. […]

[2] = target: thrombin (Homo sapiens, UniProt P00734); experiment: Michaelis-Menten constant of fluorogenic substrates with thrombin; assay type: biochemical; design: thrombin (Sigma-Aldrich); purchased Sigma-Aldrich; settings: thrombin 0.19 nM, range of substrate concentrations, 37 °C, fluorescence measured kinetically 20 min, Michaelis-Menten fit, experiment repeated twice
Method: as §1, §2

[3] = target: pancreatic elastase I (Sus scrofa, UniProt P00772); experiment: Cleavage of peptides by purified pancreatic elastase, MALDI-TOF/TOF; settings: 25 nM protease, 10 µM peptide, 37 °C, time points 2, 5, 10, 30 min
Excerpt: Trypsin-like proteases included in the experiments are trypsin-1, -2 and -3, tryptase (Enzo LifeSciences), thrombin (Sigma-Aldrich) and cathepsin G (Sigma-Aldrich). Trypsin-1, -2 and -3 were produced as described by Koistinen et al. and Wu et al.. Two elastase-like enzymes, neutrophil elastase (Enzo LifeSciences, Farmingdale, NY, USA) and pancreatic elastase I (Sigma-Aldrich) were included as well. All enzymes were from human origin except for pancreatic elastase from porcine pancreas.
Reaction mixtures with purified enzymes were compiled in an identical way. […] Substance P was added as the standard peptide except for the reaction mixtures with substance P or bradykinin as the peptide of interest, where angiotensin II (Bachem) was added.
The TFA mixtures were thawed on ice and desalted using C18 zip-tips (Merck Millipore®, Burlington, MA, USA) with a capacity of 5 µg protein. Retained peptide fragments were eluted directly on the MALDI target plate. Next, 0.5 µL of a 2.5 mg/mL α-cyano-4-hydroxycinnamic acid (Sigma-Aldrich) matrix solution (in 70% acetonitrile, 0.1% TFA) was spotted on top of the sample. A 6-Peptide mixture Kit (AB Sciex, Framingham, MA, USA) containing bradykinin (2–9), angiotensin I, glu1-fibrinopeptide, ACTH (1–17), ACTH (18–39) and ACTH (7–38) was diluted with matrix and spotted on the plate as well.
MS and MS/MS data for peptide fragment identification were obtained with a MALDI-TOF/TOF instrument (4800 MALDI TOF/TOF™, Applied Biosystems, Waltham, MA, USA) and instrument parameters were set using 4000 Series Explorer™ software. MS spectra were recorded in positive reflector mode in a mass range from 500 to 4000 Da and laser intensity of 4500–4800 Hz. The spectra were calibrated using the calibration mixture mentioned above to a mass tolerance of 0.1 Da. MS/MS spectra were recorded with high-energy collision-induced dissociation and the laser intensity was increased by 10%.
Identified fragments were confirmed using the MS/MS spectra and mMass 5.5.0 by Martin Strohalm. The relative intensities of the fragments were calculated as the ratio of the intensity of the peak of interest to the intensity of the peak of the standard peptide.

[4] = system: T-cell transfer colitis mouse model; settings: treated mice; cited from earlier work
[5] = substrate: Cc1cc(=O)oc2cc(NC(=O)[C@H](CCCNC(=N)N)NC(=O)[C@H](C)NC(=O)[C@H](CCC(N)=O)NC(=O)OC(C)(C)C)ccc12; experiment: Michaelis-Menten constant of fluorogenic substrates with trypsin-2; assay type: biochemical, human; settings: other: trypsin-2 0.015 nM, range of substrate concentrations, 37 °C, fluorescence measured kinetically 20 min, Michaelis-Menten fit, experiment repeated twice
Method: as §1, §2

pancreatic elastase I, sequence (P00772 27-266): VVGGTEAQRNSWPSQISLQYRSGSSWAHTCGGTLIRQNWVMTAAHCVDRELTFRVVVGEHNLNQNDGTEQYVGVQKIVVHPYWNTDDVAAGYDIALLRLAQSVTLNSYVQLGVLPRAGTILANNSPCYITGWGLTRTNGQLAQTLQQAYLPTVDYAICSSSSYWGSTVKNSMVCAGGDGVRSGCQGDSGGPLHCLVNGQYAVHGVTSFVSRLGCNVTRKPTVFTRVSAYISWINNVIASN

Molecule `Cc1cc(=O)oc2cc(NC(=O)[C@H](CCCNC(=N)N)NC(=O)[C@H](C)NC(=O)[C@H](CCC(N)=O)NC(=O)OC(C)(C)C)ccc12` [Boc-QAR-AMC] (Boc-Gln-Ala-Arg-{AMC}) has a Km [1] of 4.6 ± 0.3 µM and a Km [2] of 2.51 ± 0.285 mM.

In the case of `CC(C)C[C@H](NC(=O)[C@H](Cc1ccccc1)NC(=O)CNC(=O)CNC(=O)[C@@H](N)Cc1ccc(O)cc1)C(=O)O` [L-enkephalin, Leu-enkephalin], the “Incubation time at which the first cleavage or decrease of the full-length peptide was observed, pancreatic elastase” value [3] is reported as 30 min.

In the case of `CSCC[C@H](NC(=O)[C@H](Cc1ccccc1)NC(=O)CNC(=O)CNC(=O)[C@@H](N)Cc1ccc(O)cc1)C(=O)O` [M-enkephalin, Met-enkephalin], the “Incubation time at which the first cleavage or decrease of the full-length peptide was observed, pancreatic elastase” value [3] is reported as 30 min.

For `CC(=O)Nc1ccc(OP(=O)(Oc2ccc(NC(C)=O)cc2)C(Cc2ccc(N=C(N)N)cc2)NC(=O)OCc2ccccc2)cc1.Cl` (stereo not shown) [UAMC-00050], the “Effect on intestinal inflammation and permeability” value [4] is listed as “ameliorated intestinal inflammation and permeability” and the “Effect on mRNA expression of PAR4” value [4] is listed as “decreased the mRNA expression of PAR4”.

B1: trypsin-2 (Homo sapiens) (protein)
chain: IVGGYICEENSVPYQVSLNSGYHFCGGSLISEQWVVSAGHCYKSRIQVRLGEHNIEVLEGNEQFINAAKIIRHPKYNSRTLDNDILLIKLSSPAVINSRVSAISLPTAPPAAGTESLISGWGNTLSSGADYPDELQCLDAPVLSQAECEASYPGKITNNMFCVGFLEGGKDSCQGDSGGPVVSNGELQGIVSWGYGCAQKNRPGVYTKVYNYVDWIKDTIAANS
notes: made in house
Molecule B1 has a Km [5] of 11.8 ± 0.1 µM.
